Measured values reported in patent publication US20230085307A1, “PYRIDAZINONE COMPOUND AND HERBICIDE” (NISSAN CHEMICAL CORPORATION, priority 2019, published 2023).

Tests used:
windgrass = assay: Test Example 4: herbicidal effect by soil treatment (Table 19, symbol L); format: in vivo, windgrass (Apera spica-venti)
Procedure, shortened: (§1)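 Herbicidal effect was rated 3 weeks after treatment, using the scoring criteria of an earlier test. The compound, formulated as an emulsion and diluted in water to a set herbicide amount, had been sprayed uniformly on soil over freshly sown seeds. Growth took place in a greenhouse at 25° C. to 30° C.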

chickweed [1] = assay: Test Example 5: herbicidal effect by foliage application, plastic box (Table 20, symbol P); format: in vivo, common chickweed (Stellaria media); conditions: foliage application, evaluated 3 weeks after application
Procedure, shortened: (§2)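 Foliar spray test: emulsion formulation diluted in water to a set application rate, sprayed onto 14-day-old plants raised in diluvial soil at 25° C to 30° C under glass. Both herbicidal effect and crop effect rated visually three weeks later.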

lambsquarters = assay: Test Example 4: herbicidal effect by soil treatment (Table 19, symbol O); format: in vivo, lambsquarters (Chenopodium album)
Procedure, shortened: as §1

rice flat sedge = assay: Test Example 3: herbicidal effect by foliage application, Wagner pot (Table 18, symbol E); format: in vivo, rice flat sedge (Cyperus iria)
Procedure, shortened: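 Plants were sown in alluvial soil held under 0.1–0.5 cm standing water and grown 14 days in a greenhouse at 25–30 °C. An emulsifiable formulation, water-diluted to the set dose, was then sprayed onto the foliage, and effects were scored three weeks later using previously defined criteria.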

persian speedwell = assay: Test Example 4: herbicidal effect by soil treatment (Table 19, symbol R); format: in vivo, Persian speedwell (Veronica persica)
Procedure, shortened: as §1

green foxtail [2] = assay: Test Example 5: herbicidal effect by foliage application, plastic box (Table 20, symbol G); format: in vivo, green foxtail (Setaria viridis); conditions: foliage application, evaluated 3 weeks after application
Procedure, shortened: as §2

late watergrass [3] = assay: Test Example 1: herbicidal activity, application before weed generation under submerged conditions (Table 16, symbol A); format: in vivo, late watergrass (Echinochloa oryzicola)
Procedure, shortened: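 Alluvial soil was flooded to 4 cm depth, weed seeds were sown mixed and 2.5-leaf rice seedlings were transplanted. On sowing day, the compound's emulsion, diluted in water to a set dose, was applied to the water surface. Plants grew at 25–30 °C and were scored 0–5 after three weeks.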

Japanese bulrush = assay: Test Example 2: herbicidal activity, application during weed generation under submerged conditions (Table 17, symbol B); format: in vivo, Japanese bulrush (Schoenoplectus juncoides); conditions: for herbicidal effect grade, B: Japanese bulrush: application during weed generation under submerged conditions
Procedure, shortened: (§3)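 Wagner pot, alluvial soil, 4 cm flood; mixed sowing of all species; greenhouse 25° C.–30° C. Emulsifiable formulation, water-diluted to predetermined dose, applied to paddy water at 1–2 leaf stage. Effect rated at 3 wk using the earlier test's scoring criteria.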

barnyard grass = assay: Test Example 4: herbicidal effect by soil treatment (Table 19, symbol H); format: in vivo, barnyard grass (Echinochloa crus-galli)
Procedure, shortened: as §1

green foxtail [4] = assay: Test Example 4: herbicidal effect by soil treatment (Table 19, symbol G); format: in vivo, green foxtail (Setaria viridis)
Procedure, shortened: as §1

redroot pigweed = assay: Test Example 5: herbicidal effect by foliage application, plastic box (Table 20, symbol N); format: in vivo, redroot pigweed (Amaranthus retroflexus); conditions: foliage application, evaluated 3 weeks after application
Procedure, shortened: as §2

velvetleaf [5] = assay: Test Example 4: herbicidal effect by soil treatment (Table 19, symbol M); format: in vivo, velvetleaf (Abutilon theophrasti)
Procedure, shortened: as §1

velvetleaf [6] = assay: Test Example 5: herbicidal effect by foliage application, plastic box (Table 20, symbol M); format: in vivo, velvetleaf (Abutilon theophrasti); conditions: foliage application, evaluated 3 weeks after application
Procedure, shortened: as §2

Italian ryegrass = assay: Test Example 5: herbicidal effect by foliage application, plastic box (Table 20, symbol K); format: in vivo, Italian ryegrass (Lolium multiflorum); conditions: foliage application, evaluated 3 weeks after application
Procedure, shortened: as §2

chickweed [7] = assay: Test Example 4: herbicidal effect by soil treatment (Table 19, symbol P); format: in vivo, common chickweed (Stellaria media)
Procedure, shortened: as §1

late watergrass [8] = assay: Test Example 2: herbicidal activity, application during weed generation under submerged conditions (Table 17, symbol A); format: in vivo, late watergrass (Echinochloa oryzicola); conditions: for herbicidal effect grade, A: late watergrass: application during weed generation under submerged conditions
Procedure, shortened: as §3

oval-leafed pondweed = assay: Test Example 2: herbicidal activity, application during weed generation under submerged conditions (Table 17, symbol C); format: in vivo, oval-leafed pondweed (Monochoria vaginalis); conditions: for herbicidal effect grade, C: oval-leafed pondweed: application during weed generation under submerged conditions
Procedure, shortened: as §3

[9] = amount of applied herbicide 320 g/ha
[10] = AAH 320 g/ha, application during weed generation, submerged conditions
[11] = amount of applied herbicide 402 g/ha

Structure (SMILES)	L: windgrass, herbicidal effect grade (windgrass; [9])	P (chickweed) herbicidal effect grade (chickweed [1]; 320 g/ha)	O: lambsquarters, herbicidal effect grade (lambsquarters; [9])	Herbicidal effect on E (rice flat sedge), foliage application (rice flat sedge; [9])	R: persian speedwell, herbicidal effect grade (persian speedwell; [9])	G (green foxtail) herbicidal effect grade (green foxtail [2]; 320 g/ha)	Herbicidal effect, A: late watergrass (late watergrass [3]; [9])	H: barnyard grass, herbicidal effect grade (barnyard grass; [9])	G: green foxtail, herbicidal effect grade (green foxtail [4]; [9])	N (redroot pigweed) herbicidal effect grade (redroot pigweed; 320 g/ha)	M: velvetleaf, herbicidal effect grade (velvetleaf [5]; [9])	M (velvetleaf) herbicidal effect grade (velvetleaf [6]; 320 g/ha)	K (Italian ryegrass) herbicidal effect grade (Italian ryegrass; 320 g/ha)	P: chickweed, herbicidal effect grade (chickweed [7]; [9])	herbicidal effect grade, B: Japanese bulrush (Japanese bulrush; [9])	herbicidal effect grade, A: late watergrass (late watergrass [8]; [9])	herbicidal effect grade, C: oval-leafed pondweed (oval-leafed pondweed; [9])	also measured
CCCOc1ccc(-c2oc3ccc(C)cc3c2-c2c(O)c(C)nn(C)c2=O)cc1 [9-049]	0 (Herbicidal rate of 5% or less (almost no effect))	5 (Herbicidal rate of 90% or more (almost completely withered))	4 (Herbicidal rate of 70% or more and less than 90%)	3 (Herbicidal rate of 40% or more and less than 70%)	5 (Herbicidal rate of 90% or more (almost completely withered))	5 (Herbicidal rate of 90% or more (almost completely withered))	5 (Herbicidal rate of 90% or more (almost completely withered))	4 (Herbicidal rate of 70% or more and less than 90%)	4 (Herbicidal rate of 70% or more and less than 90%)	5 (Herbicidal rate of 90% or more (almost completely withered))	3 (Herbicidal rate of 40% or more and less than 70%)	5 (Herbicidal rate of 90% or more (almost completely withered))	5 (Herbicidal rate of 90% or more (almost completely withered))	4 (Herbicidal rate of 70% or more and less than 90%)	–	–	–	herbicidal effect rating, B: Japanese bulrush (Japanese bulrush; [10]): 4 (Herbicidal rate of 70% or more and less than 90%); herbicidal effect rating, A: late watergrass (late watergrass [8]; [10]): 5 (Herbicidal rate of 90% or more (almost completely withered)); herbicidal effect rating, C: oval-leafed pondweed (oval-leafed pondweed; [10]): 4 (Herbicidal rate of 70% or more and less than 90%)
CCCC(=O)Oc1c(C)nn(C)c(=O)c1-c1c(-c2ccc(SCC)cc2)oc2ccc(C)cc12 [9-058]	0 (Herbicidal rate of 5% or less (almost no effect))	5 (Herbicidal rate of 90% or more (almost completely withered))	5 (Herbicidal rate of 90% or more (almost completely withered))	5 (Herbicidal rate of 90% or more (almost completely withered))	5 (Herbicidal rate of 90% or more (almost completely withered))	5 (Herbicidal rate of 90% or more (almost completely withered))	5 (Herbicidal rate of 90% or more (almost completely withered))	2 (Herbicidal rate of 20% or more and less than 40%)	5 (Herbicidal rate of 90% or more (almost completely withered))	5 (Herbicidal rate of 90% or more (almost completely withered))	3 (Herbicidal rate of 40% or more and less than 70%)	5 (Herbicidal rate of 90% or more (almost completely withered))	5 (Herbicidal rate of 90% or more (almost completely withered))	3 (Herbicidal rate of 40% or more and less than 70%)	3 (Herbicidal rate of 40% or more and less than 70%)	4 (Herbicidal rate of 70% or more and less than 90%)	4 (Herbicidal rate of 70% or more and less than 90%)	–
Cc1ccc2oc(-c3ccc(SC(C)C)cc3)c(-c3c(O)c(C)nn(C)c3=O)c2c1 [9-059]	0 (Herbicidal rate of 5% or less (almost no effect))	5 (Herbicidal rate of 90% or more (almost completely withered))	5 (Herbicidal rate of 90% or more (almost completely withered))	5 (Herbicidal rate of 90% or more (almost completely withered))	5 (Herbicidal rate of 90% or more (almost completely withered))	5 (Herbicidal rate of 90% or more (almost completely withered))	5 (Herbicidal rate of 90% or more (almost completely withered))	1 (Herbicidal rate of 5% or more and less than 20%)	3 (Herbicidal rate of 40% or more and less than 70%)	5 (Herbicidal rate of 90% or more (almost completely withered))	3 (Herbicidal rate of 40% or more and less than 70%)	5 (Herbicidal rate of 90% or more (almost completely withered))	5 (Herbicidal rate of 90% or more (almost completely withered))	5 (Herbicidal rate of 90% or more (almost completely withered))	3 (Herbicidal rate of 40% or more and less than 70%)	4 (Herbicidal rate of 70% or more and less than 90%)	4 (Herbicidal rate of 70% or more and less than 90%)	–
CCCC(=O)Oc1c(C)nn(C)c(=O)c1-c1c(-c2ccc(SC(C)C)cc2)oc2ccc(C)cc12 [9-060]	–	–	–	–	–	–	–	–	–	–	–	–	–	–	–	–	–	L: windgrass, herbicidal effect grade (windgrass; [11]): 0 (Herbicidal rate of 5% or less (almost no effect)); P (chickweed) herbicidal effect grade (chickweed [1]; 402 g/ha): 5 (Herbicidal rate of 90% or more (almost completely withered)); O: lambsquarters, herbicidal effect grade (lambsquarters; [11]): 4 (Herbicidal rate of 70% or more and less than 90%); Herbicidal effect on E (rice flat sedge), foliage application (rice flat sedge; [11]): 5 (Herbicidal rate of 90% or more (almost completely withered)); R: persian speedwell, herbicidal effect grade (persian speedwell; [11]): 5 (Herbicidal rate of 90% or more (almost completely withered)); G (green foxtail) herbicidal effect grade (green foxtail [2]; 402 g/ha): 5 (Herbicidal rate of 90% or more (almost completely withered)); Herbicidal effect, A: late watergrass (late watergrass [3]; [11]): 5 (Herbicidal rate of 90% or more (almost completely withered)); herbicidal effect grade, B: Japanese bulrush (Japanese bulrush; [11]): 3 (Herbicidal rate of 40% or more and less than 70%); H: barnyard grass, herbicidal effect grade (barnyard grass; [11]): 0 (Herbicidal rate of 5% or less (almost no effect)); G: green foxtail, herbicidal effect grade (green foxtail [4]; [11]): 3 (Herbicidal rate of 40% or more and less than 70%); N (redroot pigweed) herbicidal effect grade (redroot pigweed; 402 g/ha): 5 (Herbicidal rate of 90% or more (almost completely withered)); M: velvetleaf, herbicidal effect grade (velvetleaf [5]; [11]): 3 (Herbicidal rate of 40% or more and less than 70%); M (velvetleaf) herbicidal effect grade (velvetleaf [6]; 402 g/ha): 5 (Herbicidal rate of 90% or more (almost completely withered)); K (Italian ryegrass) herbicidal effect grade (Italian ryegrass; 402 g/ha): 5 (Herbicidal rate of 90% or more (almost completely withered)); P: chickweed, herbicidal effect grade (chickweed [7]; [11]): 1 (Herbicidal rate of 5% or more and less than 20%); herbicidal effect grade, A: late watergrass (late watergrass [8]; [11]): 4 (Herbicidal rate of 70% or more and less than 90%); herbicidal effect grade, C: oval-leafed pondweed (oval-leafed pondweed; [11]): 4 (Herbicidal rate of 70% or more and less than 90%)
